# Data from patent US20150309031A2, “COMPOSITIONS AND METHODS FOR PROGNOSIS AND TREATMENT OF CANCER” (NOVAZOI THERANOSTICS, priority 2013, published 2015).
# Assays:
# [1] = system: PC3 cells; assay: subG1 (hypodiploid) fraction by flow cytometry, PC3 cells; assay type: cell-based
# Description: Trypsinized cells were resuspended in PBS at 10^6 cells/ml. Cells were then fixed by addition of ice-cold 70% ethanol. Ethanol-fixed cells were kept overnight at 4° C. before staining. Cells were pelleted and washed twice with PBS. Cell pellets were incubated for an hour at room temperature with mouse anti-MPM-2 antibody (Millipore, Mass., USA), followed by 1 h incubation with Alexa-488 anti-mouse secondary antibody (Life Technologies, NY, USA). Finally cells were washed, pelleted and resuspended in propidium iodide-containing isotonic buffer (0.1 mg/mL) and 0.5% Triton X-100. Cell cycle distribution was determined by flow cytometry using an LSR Fortessa Flow cytometer (BD Biosciences, CA, USA) and analyzed using Flowjo software (Tree Star, OR, USA). […] The duration, highest degree, and rapidity of onset of MA varied between drugs, drug concentrations, and cell lines (FIGS. 2A, 2B). In general, the maximum MA achieved was less pronounced in Nos- and PJ-treated cells (FIGS. 2A, 2B). Drug-induced onset of MA was corroborated by substantial increases in cyclin B1 levels in all cell lines (FIG. 2C). […] Instances where the subG1 fraction was elevated without cleaved caspase-3 may either represent caspase-independent cell death or the presence of hypodiploid cells whose fate is unclear.
# [2] = system: human dermal fibroblasts (HDFs); assay: Centrosome amplification (CA) by microscopy, HDFs; assay type: cell-based
# Description: (§1) Consequently, CA was assessed in cultures treated with different concentrations of declustering drugs for 6, 12, 18, or 24 h and untreated controls via microscopy. Centrosomes were identified by γ-tubulin and centrin-2 colocalization at discrete foci. […] The peak percent CA detected over 24 h is shown in FIG. 6 (only statistically significant (P<0.05) increases over control values are represented in the Figures). Representative confocal micrographs of CA in interphase and mitotic cells, both control and drug treated, are depicted in FIG. 7. No significant correlations between the degree of CA (FIG. 5A) and the expression levels of PLK4, Cyclin E, and Aurora A were found (FIG. 4).
# To determine whether the CA-inducing activity of declustering drugs is restricted to cancer cells, two non-malignant cell lines, mammary fibrocystic (MCF10A) cells and adult human dermal fibroblasts were treated with these drugs. Neither one of RBN, GF or PJ induced CA or cell death (Table 8) in these cell lines. […] In comparison, 10 and 25 μM RBN increased peak CA over controls in interphase cells (p<0.001 and p=0.001, respectively), with the lower concentration dramatically augmenting peak CA to 56% of cells versus 15% for the higher dose (FIG. 9B). Only 10 but not 25 μM RBN increased the extent of CA in mitotic cells, and this upregulation was only slight (10%, p=0.041).
# [3] = system: MDA-MB-231 (231), PC3, and HeLa cells; assay: Mitotic arrest (MA) by flow cytometry (MPM2/PI), across cell lines; assay type: cell-based; details: coarse-grained categories
# Description: Trypsinized cells were resuspended in PBS at 10^6 cells/ml. Cells were then fixed by addition of ice-cold 70% ethanol. Ethanol-fixed cells were kept overnight at 4° C. before staining. Cells were pelleted and washed twice with PBS. Cell pellets were incubated for an hour at room temperature with mouse anti-MPM-2 antibody (Millipore, Mass., USA), followed by 1 h incubation with Alexa-488 anti-mouse secondary antibody (Life Technologies, NY, USA). Finally cells were washed, pelleted and resuspended in propidium iodide-containing isotonic buffer (0.1 mg/mL) and 0.5% Triton X-100. Cell cycle distribution was determined by flow cytometry using an LSR Fortessa Flow cytometer (BD Biosciences, CA, USA) and analyzed using Flowjo software (Tree Star, OR, USA).
# To evaluate the impact of putative declustering drugs on cell cycle progression and hypodiploidy (<2N DNA content, which may indicate apoptotic cells), MDA-MB-231 (231), PC3, and HeLa cells were treated with different concentrations of declustering drugs, stained with propidium iodide, labeled with anti-MPM2 antibody, and then assessed by flow cytometry at multiple time points over 48 h. […] The duration, highest degree, and rapidity of onset of MA varied between drugs, drug concentrations, and cell lines (FIGS. 2A, 2B). In general, the maximum MA achieved was less pronounced in Nos- and PJ-treated cells (FIGS. 2A, 2B). […]
# [4] = system: 231, HeLa and PC3 cells; assay: Centrosome amplification (CA) by microscopy, all cancer cell lines tested; assay type: cell-based
# Description: as §1
# To better understand the “potency” of drug-induced CA with time, the average fold change in CA over controls over 24 h was assessed (FIG. 5A), whereby the extent of CA across time points (i.e., 6, 12, 18, and 24 h) was averaged and then divided by the extent of CA in control (i.e., 0 h). All of the drugs at least doubled the peak extent of CA in all cell lines tested (FIG. 5A), although the final extent of CA could be small or large in magnitude depending on the initial centrosomal burden as shown in FIG. 4. […] The extent of CA was less in interphase cells, with maximum values of 31% and 87% for 10 and 25 μM RBN (FIG. 6A). […]
# [5] = system: HDFs and MCF10A cells; assay: Spindle multipolarity (MP) in non-malignant cell lines; assay type: cell-based
# [6] = system: human ovarian cancer xenografts; details: nude mice carrying human ovarian cancer xenografts; cited from earlier work
substance,measurement,setting,value
reduced bromonoscapine [RBN],Peak subG1 percent over 48 h,[1]; 10 μM,80.7%
same,maximum subG1 fraction relative to control,[1]; 10 μM,8 × control
same,Peak subG1 percent over 48 h,[1]; 25 μM,73.0%
same,peak CA in interphase cells,[2]; 10 μM,56%
same,peak CA in interphase cells,[2]; 25 μM,15%
same,extent of CA in mitotic cells,"[2]; mitotic, 10 μM",10%
same,"peak MA (MA:HR), cells in MA",[3],≥ 30%
same,induction of CA,[4],induced CA in all three cell lines
same,induction of MP over control levels,[5],significantly induce MP over control levels
same,toxicity in normal tissues,[6],toxicity was not detected in normal tissues
same,tumor progression,[6],inhibited tumor progression
